Results from patent US9901566B1, “Limonoids for treating autoimmune diseases” (Macau University of Science and Technology, priority 2017, dated 2018).
Values joined by “and” are separate entries in the source; they are usually repeats but may differ in a detail not shown here. Equal entries are not always repeated. “Also recorded” adds a separate entry of the source.

How the values were obtained:
[1] = system: human peripheral blood mononuclear cells (PBMCs); experiment: Cell viability (MTT) assay of human PBMCs; type: cell-based; conditions: concentration of up to 50 μM, 72 h
Procedure: Human peripheral blood mononuclear cells have been isolated from buffy coat. In brief, the buffy coat provided by Macao Blood Transfusion Centre was mixed with normal saline, and then added to 50 mL centrifuge tube containing Ficoll-Pague plus (Amersham Biosciences). The mixture was separated into several layers after centrifuged at 350 g for 35 min. The layer of mononuclear cells has been collected, and then washed twice by normal saline. These cells were be used for the experiments.
Human PBMCs (1×10^5/well) were cultured in 96-well plates in triplicate in RPMI 1640 medium (Gibco, Paisley, UK) with 10% fetal bovine serum (FBS; Gibco), penicillin (100 units/mL) and streptomycin (100 μg/mL), and different concentration of Amotsangin A, B, C and D were added for 72 h. MTT (5 mg/mL) was added to the cells followed by 4 h incubation, followed by addition of solvent (10% sodium dodecyl sulfate (SDS), 50% N, N-dimethyl formamide, pH 7.2) to dissolve the purple precipitate. The absorbance was recorded on a Microplate UV/VIS Spectrophotometer (TECAN, Switzerland) at 570 nm wavelength on the following day. The percentage of cell viability was calculated using the following formula: Cell viability (%)=(ODtreated−ODblank)/(ODcontrol−ODblank)×100.

[2] = system: ROR-γt luciferase reporter activity; experiment: Lightswitch luciferase reporter assay (ROR Gamma T LUCPorter stable reporter HEK293 cells); type: cell-based; conditions: 16 h
Procedure: ROR Gamma T LUCPorter™ Stable Reporter cells and LUCPorter™ Vector Control HEK293 cells (Imgenex) were plated in 96-well plates at 5×10^4 cells/well in triplicate in RPMI 1640 medium with 10% fetal bovine serum, penicillin (100 units/mL), streptomycin (100 μg/mL) and puromycin (3 μg/mL) over night. […] Then the complete mixture of luciferase assay reagent (Biocompare, Texas, USA) has been added to the wells and the mixture has been incubated for 30 min at room temperature in the dark. The mixture has been transferred into a 96 well white plates before reading. Finally, each well was read for 2 seconds in a plate luminometer on a Microplate UV/VIS Spectrophotometer (TECAN, Switzerland). Data are obtained from three independent experiments.

ROR-γt protein = experiment: Western blotting of ROR-γt expression in ROR-γt-plasmid transfected HEK293 cells; type: cell-based, human; conditions: 24 h
Procedure: The transfection assay is preformed according to the manufacturer's instruction of lipofectamine LTX (invitrogen, USA). In brief, HEK293 cells obtained from the American Type Culture Collection (ATCC, Manassas, Va., USA) were seeded in 1.5 ml of DMEM growth media plus 10% FBS at 5×10^5 cells per well. Five hundred micro liter Opti-MEM Reduced Serum Media containing 1.25 μg of DNA was added to the cells to be transfected, and then 1.25 μl of PLUS was added into the above diluted Opti-MEM:DNA solution, gently mixed and incubated for another 5 min at room temperature. Subsequently, lipofectamine LTX™ Reagent was added into the above solution, mixed gently and then incubated 30 min at room temperature to form DNA-lipofectamine LTX Reagent complexes. Finally, 500 μl of the DNA-lipofectamine LTX Reagent complexes was directly added to each well containing cells and mixed gently. The cells were incubated at 37° C. in a CO2 incubator for another 24 h.
After incubated for 24 h, the transfected HEK293 cells were treated with different concentrations of Amotsangin A, B, C or D for another 24 h. Then the cells were lysed with RIPA buffer containing 1× protease inhibitor mix (Roche, USA) to harvest total cellular proteins, and the protein concentration was calculated by the bicinchoninic acid (BCA) kit (Pierce, Rockford, Ill.). The total cellular proteins were then subjected to electrophoresis in 10% SDS/PAGE and transferred to nitrocellulose membranes. After blocking with 5% non-fat milk in a Tris-buffered saline-0.1% Tween-20 buffer (TBST), the membrane was subsequently incubated with specific primary antibodies (RORγt antibody (eBioscience, San Diego, USA) or β-actin antibody (Santa Cruz, USA)) and HRP-conjugated secondary antibodies. A chemiluminescence (ECL) detection system was used to detect the antibody-bound proteins on the membrane.

Th17 differentiation = experiment: Flow cytometry, Th17 differentiation of naive CD4+ T cells (IL-17 production); type: cell-based, C57BL/6 mice; conditions: Th17-polarizing conditions; for ratio of the IL-17 production: 3 days; for Th17 cell differentiation (effect in words): up to 25 μM (Amotsangin C up to 10 μM)
Procedure: (§1) Naive CD4^+ T cells were sorted by magnetic bead (Miltenyi Biotec) from spleen of C57BL/6 mice (8-14 weeks). CD4^+ T cells (5×10^5 cells/well) were activated with 2 μg/ml of plate-bound anti-mouse CD3 (Biolegend, San Diego, USA), and 5 μg/ml of anti-mouse CD28 (Biolegend) into 24-well-plates. For Th17 differentiation, cells were cultured for 3 days in the presence of 1 ng/ml recombinant human transforming growth factor-β (TGF-β1, Biolegend), 50 ng/ml recombinant mouse interleukin-6 (IL-6, Biolegend), and 5 ng/ml recombinant mouse IL-23 (Biolegend), and 10 μg/ml anti-mouse interleukin-4 (IL-4, Biolegend) with or without the limonoid. For the Th1 differentiation, the cells were cultured for 3 days in the presence of 2 ng/ml recombinant mouse interleukin-2 (IL-2, Biolegend), and 20 μg/ml anti-mouse IL-4 (Biolegend) with or without indicated compounds. For the Th2 differentiation, the cells were cultured for 3 days in the presence of 2 ng/ml recombinant mouse IL-2 (Biolegend), and 20 ng/ml recombinant mouse IL-4 (Biolegend), and 20 μg/ml anti-mouse IFN-γ (Biolegend) with or without compound. For the Treg differentiation, the cells were cultured for 3 days in the presence of 1 ng/ml recombinant human TGF-β1 (Biolegend), and 5 ng/ml recombinant mouse IL-2 (Biolegend) with or without indicated compounds.
(§2) For polarization of Th17, the cells were re-stimulated in complete RPMI 1640 containing 50 ng/ml PMA, 1 μg/ml ionomycin, and 1× Brefeldin A (Biolegend) for 4 h. For polarization of Th1 and Th2, the cells were re-stimulated in complete RPMI 1640 containing 50 ng/ml PMA and 1 μg/ml ionomycin. After 1 h of incubation, 1× Monensin (Biolegend) was added and incubated for 4 h. The cells were collected and washed with Staining Buffer (BD Biosciences, New Jersey, USA), and then stained with PerCP/Cy5.5 anti-mouse CD4 (Biolegend). And then the cells were fixed for 15 min with fixation buffer (BD Biosciences), permeabilized with BD Wash buffer (1×; BD Biosciences), and stained with PE anti-mouse IL-17A (Biolegend), FITC anti-mouse IFN-γ (Biolegend), and APC anti-mouse IL-4 (Biolegend) or APC anti-mouse Foxp3 (eBioscience). The cells were analyzed by BD FACS Aria III, and the acquired data were analyzed using FlowJo software.

Th1 differentiation = experiment: Flow cytometry, Th1 differentiation of naive CD4+ T cells (IFN-γ production); type: cell-based, C57BL/6 mice; conditions: for ratio of the IFN-γ producing Th1 differentiation: Th1-polarizing conditions, 3 days
Procedure: as §1, §2

Th2 differentiation = experiment: Flow cytometry, Th2 differentiation of naive CD4+ T cells (IL-4 production); type: cell-based, C57BL/6 mice; conditions: for ratio of the IL-4 producing Th2 differentiation: Th2-polarizing conditions, 3 days
Procedure: as §1, §2

Treg differentiation = experiment: Flow cytometry, Treg differentiation of naive CD4+ T cells (Foxp3 production); type: cell-based, C57BL/6 mice; conditions: for Foxp3 producing Treg differentiation: Treg-polarizing conditions, 3 days
Procedure: as §1, §2

SMILES | cytotoxicity on human PBMCs [1] | ROR-γt luciferase reporter activity ([2]; 5 to 50 μM) | expression of ROR-γt protein (ROR-γt protein; 5 to 50 μM) | ratio of the IL-17 production (Th17 differentiation; 25 μM) [%] | Th17 cell differentiation (effect in words) (Th17 differentiation) | Th1 cell differentiation (effect in words) (Th1 differentiation; 25 μM) | ratio of the IFN-γ producing Th1 differentiation (Th1 differentiation; 25 μM) | Th2 cell differentiation (effect in words) (Th2 differentiation; 25 μM) | ratio of the IL-4 producing Th2 differentiation (Th2 differentiation; 25 μM) [%] | Treg cell differentiation (effect in words) (Treg differentiation; 25 μM) | ROR-γt luciferase reporter activity ([2]; 1 to 25 μM) | expression of ROR-γt protein (ROR-γt protein; 1 to 25 μM) | ratio of the IL-17 production (Th17 differentiation; 10 μM) [%] | Th1 cell differentiation (effect in words) (Th1 differentiation; 10 μM) | ratio of the IFN-γ producing Th1 differentiation (Th1 differentiation; 10 μM) | Th2 cell differentiation (effect in words) (Th2 differentiation; 10 μM) | ratio of the IL-4 producing Th2 differentiation (Th2 differentiation; 10 μM) | Treg cell differentiation (effect in words) (Treg differentiation; 10 μM) | Foxp3 producing Treg differentiation (Treg differentiation; 10 μM) [%] | Foxp3 producing Treg differentiation (Treg differentiation; 25 μM) [%]
C=C1[C@@H]([C@@]2(C)C=CC(=O)OC(C)(C)[C@@H]2CC(=O)OC)[C@@H](OC(C)=O)[C@H](OC(=O)C(C)CC)[C@@]2(C)[C@H](c3ccoc3)C[C@H]3O[C@]132 (stereo partly drawn) [Amotsangin A] | no significant cytotoxicity | dose-dependently reduced; also recorded: inhibits | dose-dependently reduced; also recorded: reduces | 4.28 | can suppress | no inhibitory effect | could not be changed | no inhibitory effect | 14.8 | no inhibitory effect |  |  |  |  |  |  |  |  |  | 
C=C1[C@@H]([C@@]2(C)C=CC(=O)OC(C)(C)[C@@H]2CC(=O)OC)[C@@H](OC(C)=O)[C@H](OC(=O)C(C)C)[C@@]2(C)[C@H](c3ccoc3)C[C@H]3O[C@]132 [Amotsangin B] | no significant cytotoxicity | dose-dependently reduced; also recorded: inhibits | reduces | 1.08 | can suppress | can inhibit | 2.02% | can inhibit | 4.11 | no effect; also recorded: not effect |  |  |  |  |  |  |  |  |  | 
C=C1[C@@H]([C@@]2(C)C=CC(=O)OC(C)(C)[C@@H]2CC(=O)OC)[C@@H](OC(C)=O)[C@H](OC(=O)C(O)C(C)CC)[C@@]2(C)[C@H](c3ccoc3)C[C@H]3O[C@]132 (stereo partly drawn) [Amotsangin C] | no significant cytotoxicity |  |  |  | can suppress |  |  |  |  |  | dose-dependently reduced; also recorded: reduces | reduced | 1.91 | inhibits; also recorded: can inhibit | 10.2% | inhibits | 8.7% | inhibits | 8.49 | 
C=C1[C@@H]([C@@]2(C)C=CC(=O)OC(C)(C)[C@@H]2CC(=O)OC)[C@@H](OC(C)=O)[C@H](OC(=O)CC)[C@@]2(C)[C@H](c3ccoc3)C[C@H]3O[C@]132 [Amotsangin D] | no significant cytotoxicity | dose-dependently reduced; also recorded: reduces | reduces | 1.59 | can suppress | no inhibitory effect; also recorded: slight inhibitory effect | 14.6% | could inhibit | 11.9 | no inhibitory effect |  |  |  |  |  |  |  |  |  | 13.7
C[C@H]1O[C@@H](O[C@H]2[C@@H](O)C[C@H](O[C@H]3[C@@H](O)C[C@H](O[C@H]4CC[C@@]5(C)[C@H](CC[C@@H]6[C@@H]5C[C@@H](O)[C@]5(C)[C@@H](C7=CC(=O)OC7)CC[C@]65O)C4)O[C@@H]3C)O[C@@H]2C)C[C@H](O)[C@@H]1O [digoxin, reference compound] |  |  |  |  |  |  |  |  |  |  |  |  | 5.43 |  | 10.8% and 15.3% and 17.0% |  | 15.0% and 10.2% |  |  | 
